Results taken from US6414222B1, “Gene combinations for herbicide tolerance in corn” (Regents of the University of Minnesota, priority 1993, dated 2002).

What was measured:
[1] = tested on: fatty acid synthesis in corn seedling chloroplasts; test: [14C]acetate and [14C]pyruvate incorporation into fatty acids in isolated chloroplasts; format: biochemical, Corn (Z. mays L.); details: 10 minute assay time, mean of two experiments ± standard error
Procedure: Corn (Z. mays L., ‘B37×Oh43’) seeds were germinated in darkness for 96 hours in vermiculite in an incubation chamber maintained at 30° C., 80% RH. Seedlings were then transferred to a growth chamber with a 16 hour light (25° C.) and an 8 hour dark (20° C.) cycle, 90% relative humidity (RH). After greening 48 hours, seedlings were returned to the dark incubation chamber for 12 hours to deplete chloroplast starch reserves. Seedlings were harvested 6 days after planting. Pea (P. sativum L., ‘PI 9901-C’) seedlings were grown in vermiculite in a growth chamber with a 16 hour light (21° C.) and 8 hour dark (16° C.) cycle, 80% RH. Peas were harvested 10 to 13 days after planting. Black Mexican Sweet (BMS) corn suspension cultures were maintained in a supplemented Murashige-Skoog (MS) medium (C. E. Green, Hort. Sci., 12, 7-10 (1977)), and subcultured weekly by 20-fold dilution of the suspension culture into fresh medium.
Chloroplasts from corn and pea seedlings were isolated at 4° C. (K. Cline et al., J. Biol. Chem., 260, 3691-3696 (1985)). Seedlings (50 g of shoots) were homogenized in 200 ml buffer A (50 mM HEPES-NaOH pH 7.5, 330 mM sorbitol, 0.1% w/v BSA, 1 mM MgCl2, 1 mM MnCl2, 2 mM EDTA, 5 mM isoascorbate, 1.3 mM glutathione) in an omnimixer (five, 3-second bursts at full speed). The homogenate was filtered through six layers of cheesecloth and two layers of miracloth, and then centrifuged at 3000 g for 3 minutes with hand-braking. The pellet was gently resuspended in buffer A and layered onto a preformed linear Percoll gradient (50 mM HEPES-NaOH pH 7.5, 330 mM sorbitol, 1.9 mM isoascorbate, 1.08 mM glutathione, 0.1% w/v BSA, 50% Percoll) which was centrifuged at 3000 g for 20 minutes in a Sorvall HB-4 rotor. The lower band in the gradient, containing intact chloroplasts, was washed twice by gently resuspending it in 20 ml of buffer B (50 mM HEPES-NaOH, pH 7.5, and 330 mM sorbitol) followed by repelleting (3000 g, 5 minutes). The final pellet, consisting of intact chloroplasts, was resuspended in 2 to 3 ml of buffer B and stored on ice in the dark until use.
[^14C]acetate and [^14C]pyruvate were used as precursors to measure fatty acid biosynthesis in isolated chloroplasts (B. Liedvogel et al., Planta, 169, 481-489 (1986)). [^14C]acetate incorporation was assayed in a 0.5 ml-volume containing: 50 mM HEPES-NaOH (pH 7.5), 330 mM sorbitol, 5 mM KH2PO4, 10 mM NaHCO3, 1 mM MgCl2, 1 mM ATP, 0.1 mM CoA, 0.15 mM [^14C]acetate (3.33 mCi/mmol), and chloroplasts (20 to 50 μg chlorophyll). [^14C]pyruvate incorporation into fatty acids was assayed in the same medium except that it included 2 mM TPP, 1 mM NAD^+, 0.15 mM [^14C]-pyruvate (1.33 mCi/mmol), but no acetate. […] Aliquots (50 μl) were counted for radioactivity by liquid scintillation spectrometry.

[2] = tested on: cell line 2167-9/2160-154 H-2; test: Callus herbicide tolerance, line H-2; format: cell-based, maize; details: cell line H-2
Procedure: Tolerant cell line 2167-9/2160-154 S-2 (“S-2”) was characterized to evaluate: (1) the magnitude of sethoxydim tolerance; (2) cross-tolerance of haloxyfop; and (3) the biochemical basis for the tolerance. Callus tissue from S-2 that had been maintained on 10 μM sethoxydim was transferred to media containing up to 100 μM sethoxydim. One-half gram of S-2 tissue was plated on a 7 cm filter paper as a lawn overlaying 50 ml agar-solidified culture medium containing 0, 0.5, 1.0, 2.0, 5.0, 10.0, 50.0 and 100 μM sethoxydim, and cultured for two weeks. Control cell line 2167-9/2160-154 was plated similarly on medium containing the same levels of sethoxydim. The control cell line growth after two weeks was inhibited 50% at 1 μM sethoxydim.
The tolerant callus cultures were characterized to determine the magnitude of sethoxydim and haloxyfop tolerance. Callus tissue from these lines was evaluated in experiments as described above in the characterization of line 2167-9/2160-154 S-2.

[3] = tested on: inbred wildtype control plants; test: Allelism testcross experiments, susceptible controls; format: in vivo, maize (Zea mays L.)
Procedure: Foliar applications of the herbicides were made to greenhouse- or field-grown seedlings at the three- to five-leaf stage. Herbicides were applied in a spray volume of 187 l/ha that includes 2.3 l/ha crop oil concentrate to enhance uptake. Sethoxydim and haloxyfop were applied using commercial formulations (Poast from BASF Corp and Verdict from Dow Elanco, respectively). Visual observations were recorded 14-21 days after herbicide treatments.
All F1 combinations (no reciprocals) between S1, S2, S3, H1 and H2 homozygotes were made, and these F1s were test crossed to susceptible inbred lines. The testcross progeny were grown in the greenhouse and treated with the herbicides. In Experiment 1, progeny from testcrosses with each of the ten F1 combinations were treated with 0.05 kg/ha sethoxydim for combinations involving only S lines or with 0.009 kg/ha haloxyfop for combinations involving either of the H lines. In Experiment 2, a selected subset of the F1 combinations was tested that used testcross families that were separately derived from those used in Experiment 1. Testcross progeny of S lines were treated with 0.03 kg/ha sethoxydim, and H1 and H2 progeny were treated with 0.009 kg/ha haloxyfop. In each experiment, known susceptible and heterozygous plants were included as controls.

[4] = tested on: control (2167-9/2160-154 unselected) plants; test: Whole plant sethoxydim spray, greenhouse, control regenerated plants; format: in vivo, maize; details: greenhouse-grown regenerated plants, sprayed
Text: Groups of eight control (2167-9/2160-154 unselected) and eight S-2 plants were sprayed with either 0.0, 0.01, 0.05, 0.11, 0.22 or 0.44 kg/ha sethoxydim to determine whole plant sethoxydim-tolerance of greenhouse-grown plants. Control plants were killed by 0.05 kg/ha or more sethoxydim.

Row | Structure (SMILES) | % Inhibition of [14C]acetate incorporation into fatty acids ([1]; Haloxyfop 1 μM) [%] | % Inhibition of [14C]pyruvate incorporation into fatty acids ([1]; Haloxyfop 1 μM) [%] | Fold increase in herbicide concentration that results in a 50% reduction in growth vs unselected control cell line [2] [fold] | Fold increase in herbicide concentration that results in a 50% reduction in growth vs unselected control cell line ([2]; listed as haloxyfop) | Response of wildtype control plants ([3]; 0.009 kg/ha haloxyfop) | % Inhibition of [14C]acetate incorporation into fatty acids ([1]; Sethoxydim 10 μM) [%] | % Inhibition of [14C]pyruvate incorporation into fatty acids ([1]; Sethoxydim 10 μM) [%] | Rate that killed control plants [4] [kg/ha] | Fold increase in herbicide concentration that results in a 50% reduction in growth vs unselected control cell line ([2]; listed as sethoxydim) | Response of inbred wildtype control plants ([3]; 0.05 kg/ha (Experiment 1) or 0.03 kg/ha (Experiment 2) sethoxydim)
1 | CC(Oc1ccc(Oc2ncc(C(F)(F)F)cc2Cl)cc1)C(=O)O (centres unmarked) [Haloxyfop, 2-[4-[[3-chloro-5-(trifluoromethyl)-2-pyridinyl]oxy]phenoxy]-propanoic acid] | 89 | 99 | 4 | four-fold increase | killed most, but not all | – | – | – | – | –
2 | CCCC(=NOCC)C1=C(O)CC(CC(C)SCC)CC1=O (centres unmarked) [Sethoxydim, 2-[1-(ethoxyimino)-butyl]-5-[2-(ethylthio)propyl]-3-hydroxy-2-cyclohexen-1-one] | – | – | 0 | – | – | 90 | 98 | ≥ 0.05 | Neither haloxyfop selected line showed a significant degree of sethoxydim tolerance | all inbred wildtype plants died
